According to patent US12320793B2, “Analysis method of 3-methyl-1-phenyl-2-pyrazolin-5-one active pharmaceutical ingredient, treatment for amyotrophic lateral sclerosis, inhibition of progression of amyotrophic lateral sclerosis, and method of producing medicament containing 3-methyl-1-phenyl-2-pyrazolin-5-one active pharmaceutical …” (MITSUBISHI TANABE PHARMA CORPORATION, priority 2018, dated 2025):
Entries after “also recorded” stand apart in the source; their conditions may differ. Blank lines part the entries; values can stand above or below the molecule they belong to.

Key:
Assay type in all cases: physicochemical
[1] = Solubility of edaravone active pharmaceutical ingredient (EDVP) in liquids for dissolution
Protocol: The following liquids for dissolution (a) to (f) were used to prepare sample solutions, and the dissolution states of the edaravone active pharmaceutical ingredient in those solutions were investigated. Then, a liquid for dissolution that enabled to dissolve the edaravone active pharmaceutical ingredient was used to prepare a solution of phenylhydrazine, and the solution was measured using HPLC to check the peak shape of phenylhydrazine.
• (a) 0.1 mol/L hydrochloric acid test liquid • (b) 0.1 mol/L hydrochloric acid/acetonitrile (8:2) mixture • (c) 0.1 mol/L hydrochloric acid/acetonitrile (6:4) mixture • (d) 0.1 mol/L hydrochloric acid/acetonitrile (4:6) mixture • (e) 0.1 mol/L hydrochloric acid/acetonitrile (2:8) mixture • (f) 1 mol/L hydrochloric acid/acetonitrile (6:4) mixture Preparation of Sample Solutions
The edaravone active pharmaceutical ingredient weighed to about 0.10 g was dissolved in liquids for dissolution (a) to (f), and the solutions were adjusted exactly to 10 mLs to provide sample solutions.
Sample solutions were prepared with the following three liquids for dissolution. • 1. 0.1 mol/L hydrochloric acid/methanol (7:3) mixture • 2. 0.1 mol/L hydrochloric acid/methanol (6:4) mixture • 3. […]

[2] = as above; remark: listed apart in the source
[3] = Decomposition during storage of phenylhydrazine hydrochloride versus phenylhydrazine as standard substance (Test Example 1); settings: compared with phenylhydrazine
[4] = Stability in solutions of 0.1 mol/L hydrochloric acid/methanol (5:5) mixture by HPLC (Example 3); settings: 0.1 mol/L hydrochloric acid/methanol (5:5) compared with hydrochloric acid/acetonitrile (7:3) of Example 1
Description: The stability of phenylhydrazine and/or 3-methyl-1-phenyl-2-pyrazolin-5-one in a solution was investigated provided that an organic solvent in a liquid for dissolution was changed from acetonitrile to methanol.
In accordance with the conditions of Example 1 other than the liquids for dissolution, the stability of phenylhydrazine and/or 3-methyl-1-phenyl-2-pyrazolin-5-one in the solutions was investigated.
Therefore, 0.1 mol/L hydrochloric acid/methanol (5:5) mixture was used to prepare the addition sample solution (edaravone active pharmaceutical ingredient: 0.10111 g, phenylhydrazine: 5 μL), the standard solution (phenylhydrazine hydrochloride: 13.154 mg), and the sample solution (edaravone active pharmaceutical ingredient: 0.10275 g), and the stability of the solutions was investigated.
The results of the stability study of phenylhydrazine in the solution of 0.1 mol/L hydrochloric acid/methanol (5:5) mixture are shown in Table 7 and FIG. 7.

- solubility of EDVP ([1]; (a) 0.1 mol/L hydrochloric acid test liquid, about 0.10 g to 10 mL): insoluble
- solubility of EDVP ([1]; (b) 0.1 mol/L hydrochloric acid/acetonitrile (8:2) mixture, about 0.10 g to 10 mL): insoluble
- solubility of EDVP ([1]; (c) 0.1 mol/L hydrochloric acid/acetonitrile (6:4) mixture, about 0.10 g to 10 mL): soluble
- solubility of EDVP ([1]; (d) 0.1 mol/L hydrochloric acid/acetonitrile (4:6) mixture, about 0.10 g to 10 mL): soluble
- solubility of EDVP ([1]; (e) 0.1 mol/L hydrochloric acid/acetonitrile (2:8) mixture, about 0.10 g to 10 mL): soluble
- solubility of EDVP ([1]; (f) 1 mol/L hydrochloric acid/acetonitrile (6:4) mixture, about 0.10 g to 10 mL): soluble
- solubility of EDVP ([1]; liquid for dissolution 3: 0.1 mol/L hydrochloric acid/methanol (5:5) mixture): soluble
Structure (SMILES): CC1=NN(c2ccccc2)C(=O)C1 [EDVP, 3-methyl-1-phenyl-2-pyrazolin-5-one]
- solubility of EDVP ([2]; (g) 0.1 mol/L hydrochloric acid/acetonitrile (7:3) mixture, listed as edaravone active pharmaceutical ingredient): soluble; also recorded: dissolve completely

Structure (SMILES): Cl.NNc1ccccc1 [phenylhydrazine hydrochloride]
- decomposition during storage [3]: less likely to decompose during storage

Structure (SMILES): NNc1ccccc1 [phenylhydrazine]
- decomposition of phenylhydrazine in the solution [4]: tended to be faster decomposed
- dissolution of phenylhydrazine ([2]; 0.1 mol/L hydrochloric acid/acetonitrile mixture (volume ratio 7:3)): dissolve completely
